Calls of active or inactive are those of the source. The calls are words filed in the database; no cut-off is given here.
Columns and labels:
Alpha-synuclein [1] = molecular target: T1, Alpha-synuclein (Homo sapiens, UniProt P37840); assay: Inhibition of alpha-Synuclein (unknown origin) aggregation incubated for 72 hrs by ThT-based fluorescence analysis
Alpha-synuclein [2] = molecular target: T1, Alpha-synuclein; assay: Inhibition of alpha-Synuclein (unknown origin) aggregation assessed as alteration in typical alpha-Syn "S" shaped aggregation kinetics by measuring reduction in aggregation rate in elongation phase at 30 uM measured for 86 hrs by ThT-based fluorescence analysis
Alpha-synuclein [3] = molecular target: T1, Alpha-synuclein; assay: Inhibition of alpha-Synuclein (unknown origin) aggregation assessed as alteration in typical alpha-Syn "S" shaped aggregation kinetics by measuring reduction in oligomeric nuclei in lag phase at 30 uM measured for 86 hrs by ThT-based fluorescence analysis
Alpha-synuclein [4] = molecular target: T1, Alpha-synuclein; assay: Inhibition of alpha-Synuclein (unknown origin) aggregation assessed as alteration in typical alpha-Syn "S" shaped aggregation kinetics by measuring weakening of primary nucleation in lag phase at 30 uM measured for 86 hrs by ThT-based fluorescence analysis

| Compound | IC50 (Alpha-synuclein [1]) | inhibition (Alpha-synuclein [2]) | inhibition (Alpha-synuclein [3]) | inhibition (Alpha-synuclein [4]) |
| --- | --- | --- | --- | --- |
| COc1cc(/C=C/C(=O)CC(=O)/C=C/c2ccc(O)c(OC)c2)ccc1O [CURCUMIN] | 3.3 µM |  |  |  |
| COc1cc(/C=C/C(=O)C(=Cc2ccc(O)cc2)C(=O)/C=C/c2ccc(O)c(OC)c2)ccc1O | 4.39 µM | Active | Active | Active |
